This note sets out measurements from publication PMC6642016 (Nature chemical biology, 2019).

Type in all cases: biochemical
One assay deals with T1, PtmJ (Streptomyces pactum, UniProt A8R0J5).
T1 sequence (A8R0J5 1-318): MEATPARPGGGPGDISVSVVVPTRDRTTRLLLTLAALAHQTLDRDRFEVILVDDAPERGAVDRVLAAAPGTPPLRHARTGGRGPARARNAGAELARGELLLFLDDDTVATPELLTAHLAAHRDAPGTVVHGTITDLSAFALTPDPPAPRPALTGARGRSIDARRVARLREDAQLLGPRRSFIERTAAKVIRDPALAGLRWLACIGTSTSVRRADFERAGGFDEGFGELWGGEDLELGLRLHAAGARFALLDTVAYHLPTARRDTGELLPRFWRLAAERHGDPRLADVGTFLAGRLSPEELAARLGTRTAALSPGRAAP
In words: mass spectrometry of GlcNAc-3ABA-SNAC. The conditions noted are these: donor UDP-GlcNAc.

The next assay has as its target T2, PtmS (Streptomyces pactum, UniProt B7TWM6).
T2 sequence (B7TWM6 1-505): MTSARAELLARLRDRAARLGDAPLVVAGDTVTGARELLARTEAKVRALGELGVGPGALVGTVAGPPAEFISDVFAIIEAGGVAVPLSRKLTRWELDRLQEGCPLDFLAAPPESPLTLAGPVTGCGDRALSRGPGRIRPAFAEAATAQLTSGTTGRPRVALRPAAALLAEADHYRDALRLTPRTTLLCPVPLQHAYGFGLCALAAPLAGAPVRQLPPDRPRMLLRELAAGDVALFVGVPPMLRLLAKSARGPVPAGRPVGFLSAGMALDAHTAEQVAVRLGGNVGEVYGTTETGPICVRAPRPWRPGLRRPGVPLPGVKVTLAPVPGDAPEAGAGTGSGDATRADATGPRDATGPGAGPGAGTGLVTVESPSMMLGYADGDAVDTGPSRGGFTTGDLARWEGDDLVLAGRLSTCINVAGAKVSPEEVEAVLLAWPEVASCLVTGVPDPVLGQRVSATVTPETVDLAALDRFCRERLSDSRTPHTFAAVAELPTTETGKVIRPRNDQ
In words: HPLC and LC-MS of 3ABA-AMP. The conditions noted are these: MgCl2 5 mM, Tris-HCl pH 8.0, 30 °C.

The target in the next assay is T3, PtmI (Streptomyces pactum, UniProt A8R0J4).
T3 sequence (A8R0J4 1-94): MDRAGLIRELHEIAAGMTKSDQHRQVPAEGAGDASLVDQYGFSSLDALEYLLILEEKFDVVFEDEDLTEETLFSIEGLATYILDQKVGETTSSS
In words: LC-MS of intact protein. The conditions noted are these: covalent; holo-PtmI 200 μM, malonyl-CoA 8 mM, Tris-HCl pH 8.0, 30 °C.

The structures appear in SMILES notation.

For `CC(=O)NCCSC(=O)c1cccc(N)c1` [3ABA-SNAC], at PtmJ, the “mass spectrometry of GlcNAc-3ABA-SNAC” value was “PtmJ reaction mixture showing that 3ABA-SNAC can be glycosylated to give GlcNAc-3ABA-SNAC”.

Consider `Nc1ncnc2c1ncn2[C@@H]1O[C@H](COP(=O)(O)OP(=O)(O)OP(=O)(O)O)[C@@H](O)[C@H]1O` [ATP], for which the “HPLC and LC-MS of 3ABA-AMP; coupled pyrophosphate assay” value on PtmS (3ABA 2 mM) is “incubated with 3ABA in the presence of ATP and MgCl2 to give 3-aminobenzoyl-AMP (3ABA-AMP)”.

On to `Nc1cccc(C(=O)O)c1` [compound 3, 3-aminobenzoic acid], for which the “HPLC and LC-MS of 3ABA-AMP; coupled pyrophosphate assay” value at PtmS (ATP 5 mM) was “the purified protein was incubated with 3ABA in the presence of ATP and MgCl2”.

In the case of `CC(C)(COP(=O)(O)OP(=O)(O)OC[C@H]1O[C@@H](n2cnc3c(N)ncnc32)[C@H](O)[C@@H]1OP(=O)(O)O)[C@@H](O)C(=O)NCCC(=O)NCCSC(=O)CC(=O)O` [malonyl-CoA], the “LC-MS of intact protein (malonyl-PtmI, self-acylation)” value at PtmI is “Incubation of the holo-PtmI with malonyl-CoA (Figure 3a) also led to the formation of malonyl-PtmI”.
